Results: paper PMC6123649, “Structural basis for specific inhibition of the highly sensitive ShHTL7 receptor” (EMBO Reports, 2018)
Where two headings read alike, the source gives them in different places.

Legend:
ShHTL7 [1] = molecular target: T1, ShHTL7 (Striga hermonthica, UniProt A0A0M3PNA2); assay: Microscale thermophoresis (MST); format: binding
T1 sequence (A0A0M3PNA2 1-271): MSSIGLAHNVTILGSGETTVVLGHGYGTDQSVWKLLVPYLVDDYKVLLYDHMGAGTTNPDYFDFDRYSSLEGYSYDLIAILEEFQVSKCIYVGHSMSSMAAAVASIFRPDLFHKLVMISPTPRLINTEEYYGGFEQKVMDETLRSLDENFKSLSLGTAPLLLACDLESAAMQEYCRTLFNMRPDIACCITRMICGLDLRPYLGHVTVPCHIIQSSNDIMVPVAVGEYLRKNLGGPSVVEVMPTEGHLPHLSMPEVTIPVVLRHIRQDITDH
Protocol: ShHTL7 was N‐terminally labeled with RED dye (NT‐647) following the protocol from manufacturer (NanoTemper, Germany). Free dye was removed by passing through the Sephadex G‐25 column. Serial dilutions of unlabeled Triton X‐100, GR24, and PAA ranging from 25 μM to sub‐nanomolar range were mixed with 20 nM of NT‐647‐labeled ShHTL7 in buffer (50 mM Tris–HCl, 150 mM NaCl, 0.005% Tween‐20) and incubated for 2.5 h in the studies for Triton X‐100 and PAA except with GR24, and it was recorded after 10‐min incubation. About 10 μl of sample was loaded into premium monolith NT capillaries, and assays were carried out in a NanoTemper Monolith NT.015T. The red fluorescence was excited by a light‐emitting diode, and its emission was recorded on the focused part of capillaries. Using laser diode, a microscopic temperature gradient was created at the same location and the fluorescence depletion was measured. K d values were determined by plotting the concentrations of unlabeled ligands against the changes in fluorescent thermophoresis signal, and the data were analyzed using the NanoTemper analysis software.

ShHTL7 [2] = molecular target: T1, ShHTL7; assay: Differential static light scattering (DSLS), aggregation temperature; format: binding; settings: 10 μM protein, varying compound concentrations
Protocol: The specific aggregation temperature, T agg, at which ShHTL7, ShHTL7L143Y, AtD14, and OsD14 aggregated in the presence or absence of Triton X‐100, GR24, and PAA was measured using DSLS on the Stargazer system (Harbinger Biotechnology and Engineering Corporation, Markham, Canada). Protein samples at a concentration of 10 μM were overlaid with mineral oil in a clear bottom 384‐well black plate (Corning) and heated from 20 to 95°C at 1°C/min; light scattering was detected by a CCD camera every 0.5°C in the presence or absence of varying concentrations of Triton X‐100, GR24, and PAA yielding the difference in aggregation temperature at a particular concentration from apoproteins (ΔT agg). Data were normalized, and ΔT agg plotted against the Triton X‐100, GR24, and PAA concentration. Resulting data were plotted to determine the change in T agg of all proteins when bound to Triton X‐100, GR24, and PAA using GraphPad (Prism 6).

Striga hermonthica seeds = assay: Striga hermonthica germination bioassay; format: in vivo; settings: for effect on GR24-induced Striga germination: n‐dodecyl‐β‐D‐maltoside at 15 and 1.5 µM, same conditions as Triton
Protocol: Striga hermonthica seeds were collected from Sorghum bicolor field in Sudan. For germination bioassays, Striga seeds were first sterilized and pre‐conditioned as described before 31. […] Triton X‐100/GR24 mixtures were applied (50 μl per disk) in four replicates. Corresponding volumes of GR24 and sterile MiliQ water were included as positive and negative control, respectively. The petri dishes were sealed with parafilm, enfolded with aluminum foil, and incubated for 48 h at 30°C. The germinated (seeds with radicle emerging through the seed coat) and non‐germinated Striga seeds were recorded under a binocular, and germination percentage was calculated.

ShHTL7 [3] = molecular target: T1, ShHTL7; assay: Intrinsic tryptophan fluorescence assay; format: binding
ShHTL7 [4] = molecular target: T1, ShHTL7; assay: Yoshimulactone Green (YLG) hydrolysis competition assay; format: biochemical
Protocol: In vitro YLG hydrolysis assays were performed using 3 μM of ShHTL7, ShHTL7‐L143Y, AtD14, and OsD14 in a reaction buffer (1× PBS) with 0.1% dimethyl sulfoxide (DMSO) in a 100 μl volume on a 96‐well black plate (Greiner). The fluorescent intensity was measured by SpectraMax i3 (Molecular Devices) using an excitation wavelength of 480 nm and a detection wavelength of 520 nm. […] Protein‐Triton mixes were pre‐incubated for 30 min. 1 μM YLG (Tokyo Chemical Industry Co. Ltd.) was then added, and the assay was incubated for 60 min. The change in fluorescence observed over the course of 1 h incubation of YLG in buffer without protein was subtracted from the data collected in the presence of protein. The resulting relative fluorescence values were analyzed. The inhibitory curves and IC50 values were plotted using GraphPad (Prism 6) four‐parameter logistic curve. The rate of YLG hydrolysis by ShHTL7 was recorded following the above method at 10‐min interval for 2 h.

ShHTL7 [5] = molecular target: T1, ShHTL7; assay: Drug affinity response target stability (DARTS) assay; format: binding; settings: 100 μM compound; proteinase K 10 μg/ml
Protocol: ShHTL7 and mutants were diluted to a concentration of 30 μM in 50 mM Tris–HCl pH 7.5, 150 mM NaCl, 0.005% Tween‐20, incubated with GR24 at final concentration of 100 μM for 5 min, and separately with 100 μM Triton X‐100 for 2 h. One sample was kept aside for use as an undigested control. Proteinase K (Hampton Research) was then added to ShHTL7 protein to a final protease concentration of 10 μg/ml. Reactions were incubated at room temperature for 5 min and then SDS–PAGE loading buffer was added to stop the reaction, and the samples were immediately boiled for 3 min. Equal amounts of each sample, corresponding to 10 μg of protein, were run on a 4–20% gradient polyacrylamide gel (Bio‐Rad) and analyzed by Coomassie Blue staining 32.

ShHTL7 [6] = molecular target: T1, ShHTL7; settings: cited from earlier work
ShHTL4‐6 = system: ShHTL4‐6; parameters: method as in PMID 26293962; settings: transgenic A. thaliana, read-out: EC50 values for GR24; cited from earlier work
ShHTL7 [7] = molecular target: T1, ShHTL7; parameters: method as in PMID 26293962, PMID 26450211; settings: read-out: IC50 for GR24, in vitro YLG assay; recombinant ShHTL7; cited from earlier work
ShHTL6 = system: ShHTL6; parameters: method as in PMID 26293962, PMID 26450211; settings: recombinant ShHTL6; read-out: IC50 for GR24, in vitro YLG assay; cited from earlier work

Q: Which “binding to ShHTL7 (MST)” value (ShHTL7 [1]; authors' reply in peer review file) does the source give for `CCCCCCCCCCCCO[C@@H]1O[C@H](CO)[C@@H](O[C@H]2O[C@H](CO)[C@@H](O)[C@H](O)[C@H]2O)[C@H](O)[C@H]1O` [n‐dodecyl‐β‐D‐maltoside, reference compound] here?
A: does neither bind

Q: And the “effect on ShHTL7 aggregation temperature (T agg)” value (“effect … (T agg)” for short) (ShHTL7 [2])?
A: did not increase

Q: And the “effect … (T agg)” value (ShHTL7 [2]; listed as nDM)?
A: nor increase Tagg

Q: And the “effect on GR24-induced Striga germination” value (Striga hermonthica seeds)?
A: did not affect germination

Q: And the “effect on GR24-induced Striga germination” value (Striga hermonthica seeds; listed as nDM)?
A: does not block germination

Q: Which results are given for `CC1=CC(O/C=C2/C(=O)OC3c4ccccc4CC23)OC1=O` (stereo not shown) [GR24]?
A: Kd (ShHTL7 [1]): 920 ± 10 nM; Kd (ShHTL7 [3]): 390 ± 50 nM; IC50 (ShHTL7 [4]): 870 ± 60 nM; effect on ShHTL7 aggregation temperature (T agg) (ShHTL7 [2]): destabilized; protection of ShHTL7 from digestion by proteinase K (ShHTL7 [5]): efficiently protected; EC50 of GR24 for ShHTL7 in transgenic Arabidopsis (ShHTL7 [6]): picomolar range; EC50 (ShHTL7 [6]; read-out: EC50 (vs. GR24), seed germination in transgenic Arabidopsis lines expressing ShHTL7, ref Toh et al., 2015 (ref. 22)): 0.0175 nM; EC50 (ShHTL4‐6): 10 to 300 nM; IC50 (ShHTL7 [7]): ~500 nM; IC50 (ShHTL6): ~500 nM

Q: With `CC(C)(C)CC(C)(C)c1ccc(OCCO)cc1` [4-ter-octylphenol Monoethoxylate, 4‐ter‐octylphenol monoethoxylate] as the molecule, how does the IC50 (ShHTL7 [4]) read?
A: 9240 ± 3170 nM

Q: For `CCOC(=O)c1ccccc1-c1c2ccc(=O)cc-2oc2cc(OC3C=C(C)C(=O)O3)ccc12` (stereo not shown) [YLG, reference compound], which “time for hydrolysis of YLG by ShHTL7” value (ShHTL7 [4]; 3 μM ShHTL7, 1 μM YLG, absence of Triton) is on record?
A: ≤ 50 min

Q: For `CC(C)(C)CC(C)(C)c1ccc(OCC(=O)O)cc1` [PAA, 2‐[4‐(2,4,4‐trimethylpentan‐2‐yl)phenoxy]acetic acid], which Kd (ShHTL7 [1]) is on record?
A: 1700 ± 240 nM

Q: And the IC50 (ShHTL7 [4])?
A: 1480 nM

Q: What about the “effect … (T agg)” value (ShHTL7 [2]) of the same molecule?
A: stabilized

Q: And the inhibition at 10 µM (Striga hermonthica seeds; Striga hermonthica, 48 h, read-out: inhibition of S. hermonthica germination)?
A: ≤ 40%

Q: For `CC(C)(C)CC(C)(C)c1ccc(OCCOCCO)cc1` [4-ter-octylphenol diethoxylate, 4‐ter‐octylphenol diethoxylate], which IC50 (ShHTL7 [4]) is on record?
A: 7480 ± 2130 nM
